Source: patent publication US5026836A, “6-sulfenamide, 6-sulfinamide and 6-sulfonamide purines, purine nucleosides, purine nucleotides, pharmaceutical compositions, and processes of making” (priority 1988, dated 1991)
Starred links: 1 amine or outer side, 2 acyl side, 3 side chain; linkers in the order of their positions; H or OH if unused. Positions of bridges follow the written chain, without caps; N, C: chain ends. Non-standard residues stand in square brackets, D forms with d. Residues, ends and D or L forms follow the SMILES beside them. Chains are numbered I, II in the order given. Actinocin(9to1) = Cc1c2oc3c(C)ccc(C(=O)[*:1])c3nc-2c(C(=O)[*:2])c(N)c1=O; NMeV = CN[C@H](C(=O)O)C(C)C; Sar = CNCC(=O)O

Key:
L1210 cells [1] = assay: L1210 cells surviving treatment (% of original inoculum); format: in vivo, mouse; conditions: for L1210 cells surviving treatment (% of original inoculum): ip day 1, Enantiomer A 37 mg/kg, Enantiomer B 173 mg/kg
Excerpt: (§1) Values below 25% are considered capable of producing effective therapy, those below 10% are considered good and those below 5% are considered very good. This expresses the percent of the cells which survived treatment based upon the original cells in the inoculum. Those tests expressed as increases in life span (% ILS) indicate the increased life span of the drug treated group compared to a control group.
As an indicator of reproducible activity, compounds of the invention and other known cancer chemotherapeutic agents were screened against L1210 lymphoid leukemia in vivo utilizing the mouse as a test species. Normal NCI protocols for this test require 10^5 seed cells of the L1210 cell line. However for the purposes of tests with the L1210 cell line in testing the compounds of the invention for antitumor activity, a log greater, i.e. 10^6 cells were utilized.
Tables 2-a and 2-b illustrate a dose response for Compound 19 against L1210 inoculated mice expressed as both increased life span compared to control and as the number of cells of the original inoculum surviving drug treatment. As is evident from the various regimens of drug treatment shown in Tables 2-a and 2-b, effective therapeutic effects are noted and a dose response to Compound 19 is evident. […] Cytosine Arabinoside must be given every three hours. Test results are given utilizing standard protocols based on mean survival time and are expressed as T/C percentages (treated animals/control animals).

[2] = Solubility (maximum solubility); format: physicochemical
L1210 cells [3] = assay: Life span of BDF1 mice inoculated ip with 10^6 L1210 leukemia cells; format: in vivo, mouse; conditions: for T/C (%): ip day 1, Enantiomer A 37 mg/kg, Enantiomer B 173 mg/kg; for relative activity of the two enantiomers (words): mouse, in vivo; for Increased life span: qd days 1,3,5,7; for T/C: single QD day 1 ip (Table 14-b)
Protocol: As illustrative examples of use of the compounds of the invention the following examples are given. […] These standard tests utilize protocols developed under the auspices of the Developmental Therapeutics Program, Division of Cancer Treatment, National Cancer Institute, Bethesda, Md., U.S.A. Except as otherwise indicated the tests conform to these protocols and are evaluated utilizing criteria defined by the protocols.
as §1
As an indicator of reproducible activity, compounds of the invention and other known cancer chemotherapeutic agents were screened against L1210 lymphoid leukemia in vivo utilizing the mouse as a test species. Normal NCI protocols for this test require 10^5 seed cells of the L1210 cell line.
Cytosine Arabinoside must be given every three hours.
Mice were inoculated intraperitoneally on day 0 with a million cells of murine leukemia L1210. Drug was given qd days 1, 4 and 7. Increased life span is the mean increase in the treated group presented as a percentage of the mean life span of control mice.
Mice were inoculated intraperitoneally on day 0 with a million cells of murine leukemia L1210. Drugs were given qd days 1, 3, 5 and 7. Increased life span is presented as a percentage of the mean life span of control mice.

[4] = test system: Human Colon Adenocarcinoma CX-1; conditions: data from Goldin et al 1981; activity indicated at ≤20; cited from earlier work
L1210 cells [5] = assay: Bioassay of viable L1210 cells in brain after intracranial inoculation and ip drug; format: in vivo, mouse; conditions: 24 hr after single ip dose (mg/kg): Methotrexate 12, Adriamycin 3, 6-Mercaptopurine 160, Cytosine Arabinoside 1200, Cyclophosphamide 140, Compound 19 173, Tiazofurin 1200, BCNU 20
Excerpt: BDF1 mice were inoculated intracranially on day 0 with 1×10^5 L1210 cells. […] 24 hr after drug delivery the brains were collected, homogenized, and injected ip into untreated mice. Each mouse received the equivalent of half a brain. Thereafter, life span was monitored and, using inoculum-response data as a base of comparison, estimates were made of the numbers of viable cells in treated and control brains.

Molecule: Nc1nc([S+](N)[O-])c2ncn([C@@H]3O[C@H](CO)[C@@H](O)[C@H]3O)c2n1 (single isomer, unassigned) [Enantiomer A]
- Cells surviving treatment (% of original inoc.) (L1210 cells [1]; 37 mg/kg/inj bid day 1, total A 70.94 mg/kg): 10%
- Cells surviving treatment (% of original inoc.) (L1210 cells [1]; 37 mg/kg/inj qd day 1, total A 35.47 mg/kg): 64%
- Cells surviving treatment (% of original inoc.) (L1210 cells [1]; 37 mg/kg/inj qid day 1, total A 141.88 mg/kg): 1%
- Cells surviving treatment (% of original inoc.) (L1210 cells [1]; 37 mg/kg/inj tid day 1, total A 106.41 mg/kg): 1%
- L1210 cells surviving treatment (% of original inoculum) (L1210 cells [1]): 182.8%
- solubility [2]: about 3.7 mg per ml
- % ILS (L1210 cells [3]; 37 mg/kg/inj bid day 1, total A 70.94, B 1.26, contaminant 1.80 mg/kg): 44%
- % ILS (L1210 cells [3]; 37 mg/kg/inj printed qid day 1, total A 177.35, B 3.15, contaminant 4.50 mg/kg): 0%
- % ILS (L1210 cells [3]; 37 mg/kg/inj qd day 1, total A 35.47, B 0.63, contaminant 0.90 mg/kg): 22%
- % ILS (L1210 cells [3]; 37 mg/kg/inj qid day 1, total A 141.88, B 2.52, contaminant 3.60 mg/kg): 72%
- % ILS (L1210 cells [3]; 37 mg/kg/inj tid day 1, total A 106.41, B 1.89, contaminant 2.70 mg/kg): 72%
- T/C (%) (L1210 cells [3]): 108.7%
- relative activity of the two enantiomers (words) (L1210 cells [3]): greater activity with respect to enantiomer B because of solubility differences
- relative activity of the two enantiomers (words) (L1210 cells [3]; listed as enantiomer A): comparable activity

Molecule: Nc1nc([S+](N)[O-])c2ncn([C@@H]3O[C@H](CO)[C@@H](O)[C@H]3O)c2n1 (single isomer, unassigned) [Enantiomer B]
- L1210 cells surviving treatment (% of original inoculum) (L1210 cells [1]): 7.5%
- solubility [2]: about 17.3 mg per ml
- T/C (%) (L1210 cells [3]): 144.9%
- relative activity of the two enantiomers (words) (L1210 cells [3]): comparable activity

Molecule: O=c1[nH]cc(F)c(=O)[nH]1 [5-Fluorouracil]
- Activity rating δT/δC [4]: 88

Molecule: Nc1nc2nc[nH]c2c(=S)[nH]1 [6-Thioguanine]
- Activity rating δT/δC [4]: 81

Molecule: Nc1nc2c(ncn2[C@@H]2O[C@H](CO)[C@@H](O)[C@H]2O)c(=S)[nH]1 [6-Thioguanosine, reference compound]
- Increased life span (L1210 cells [3]; 8.1 mg/kg/inj injected): 48%
- Increased life span (L1210 cells [3]; 13 mg/kg/inj injected): 38%
- Increased life span (L1210 cells [3]; 22 mg/kg/inj injected): 42%
- Increased life span (L1210 cells [3]; 37 mg/kg/inj injected): 45%
- Increased life span (L1210 cells [3]; 62 mg/kg/inj injected): 42%
- Increased life span (L1210 cells [3]; 104 mg/kg/inj injected): 42%
- Increased life span (L1210 cells [3]; 173 mg/kg/inj injected): 52%

Molecule: Cc1c2oc3c(C)ccc(C(=O)N[C@@H]4C(=O)N[C@H](C(C)C)C(=O)N5CCC[C@H]5C(=O)N(C)CC(=O)N(C)[C@@H](C(C)C)C(=O)O[C@@H]4C)c3nc-2c(C(=O)N[C@@H]2C(=O)N[C@H](C(C)C)C(=O)N3CCC[C@H]3C(=O)N(C)CC(=O)N(C)[C@@H](C(C)C)C(=O)O[C@@H]2C)c(N)c1=O [Actinomycin D] (I: T[dV]P[Sar][NMeV] / II: T[dV]P[Sar][NMeV]; ester I:1-I:C, II:1-II:C; linker I:N-II:N via Actinocin(9to1))
- Activity rating δT/δC [4]: 73

Molecule: COc1cccc2c1C(=O)c1c(O)c3c(c(O)c1C2=O)C[C@@](O)(C(=O)CO)C[C@@H]3O[C@H]1C[C@H](N)[C@H](O)[C@H](C)O1 [Adriamycin, reference compound]
- Residual cells (% of control brain) (L1210 cells [5]): 89.5%
- Activity rating δT/δC [4]: 72

Molecule: O=NN(CCCl)C(=O)NCCCl [BCNU, reference compound]
- Residual cells (% of control brain) (L1210 cells [5]): 1.6%
- Activity rating δT/δC [4]: 63

Molecule: O=NN(CCCl)C(=O)NC1CCCCC1 [CCNU]
- Activity rating δT/δC [4]: 77

Molecule: O=C(O)CCCc1ccc(N(CCCl)CCCl)cc1 [Chlorambucil]
- Activity rating δT/δC [4]: 60

Molecule: O=NN(CCCl)C(=O)N[C@H]1C(O)O[C@H](CO)[C@@H](O)[C@@H]1O (stereo partly shown) [Chlorozotocin]
- Activity rating δT/δC [4]: 75

Molecule: N.N.[Cl][Pt][Cl] [Cis-Platinum]
- Activity rating δT/δC [4]: 66

Molecule: C[C@H]1O[C@@H](n2cnc3c([S+](N)[O-])nc(N)nc32)[C@H](O)[C@@H]1O (stereo partly drawn) [Compound 42, 2-Amino-9-(5-deoxy-β-D-ribofuranosyl)-9H-purine-6-sulfinamide]
- Max. sol. dosage [2]: 104 mg/kg
- T/C (L1210 cells [3]; NaOH vehicle): 172

Molecule: C[C@H]1O[C@@H](n2cnc3c(S(N)(=O)=O)nc(N)nc32)[C@H](O)[C@@H]1O [Compound 43, 2-Amino-9-(5-deoxy-β-D-ribofuranosyl)-9H-purine-6-sulfonamide]
- Max. sol. dosage [2]: 480 mg/kg
- T/C (L1210 cells [3]): 130

Molecule: NSc1nc(N)nc2c1ncn2[C@H]1C[C@H](O)[C@@H](CO)O1 [Compound 45, 2-Amino-9-(2-deoxy-β-D-erythro-pentofuranosyl)-9H-purine-6-sulfenamide]
- Max. sol. dosage [2]: 480 mg/kg
- T/C (L1210 cells [3]): 172

Molecule: Nc1nc([S+](N)[O-])c2ncn([C@@H]3O[C@H](CO)[C@@H](O)[C@@H]3O)c2n1 (stereo partly drawn) [Compound 50, 2-Amino-9-β-D-arabinofuranosyl-9H-purine-6-sulfinamide]
- Max. sol. dosage [2]: 800 mg/kg
- T/C (L1210 cells [3]): 140

Molecule: NS(=O)(=O)c1ncnc2c1ccn2[C@H]1C[C@H](O)[C@@H](CO)O1 [Compound 55, 7-(2-Deoxy-β-D-erythro-pentofuranosyl)pyrrolo[2,3-d]-pyrimidine-4-sulfonamide]
- Max. sol. dosage [2]: 288 mg/kg
- T/C (L1210 cells [3]): 125

Molecule: O=P1(N(CCCl)CCCl)NCCCO1 (stereo not shown) [Cyclophosphamide, reference compound]
- Residual cells (% of control brain) (L1210 cells [5]): 11.5%
- Activity rating δT/δC [4]: 113

Molecule: CN(C)/N=N/c1[nH]cnc1C(N)=O [DTIC]
- Activity rating δT/δC [4]: 92

Molecule: CN(C)c1nc(N(C)C)nc(N(C)C)n1 [Hexamethylmelamine]
- Activity rating δT/δC [4]: 85

Molecule: N[C@@H](Cc1ccc(N(CCCl)CCCl)cc1)C(=O)O [Melphalan]
- Activity rating δT/δC [4]: 101

Molecule: CN(Cc1cnc2nc(N)nc(N)c2n1)c1ccc(C(=O)N[C@@H](CCC(=O)O)C(=O)O)cc1 [Methotrexate, reference compound]
- Residual cells (% of control brain) (L1210 cells [5]): 97%
- Activity rating δT/δC [4]: 66

Molecule: CC1CCC(NC(=O)N(CCCl)N=O)CC1 (stereo not shown) [Methyl CCNU]
- Activity rating δT/δC [4]: 83

Molecule: CO[C@@]12[C@H](COC(N)=O)C3=C(C(=O)C(C)=C(N)C3=O)N1C[C@@H]1N[C@@H]12 [Mitomycin C]
- Activity rating δT/δC [4]: 62

Molecule: CNNCc1ccc(C(=O)NC(C)C)cc1 [Procarbazine]
- Activity rating δT/δC [4]: 60

Molecule: NC(=O)c1csc([C@@H]2O[C@H](CO)[C@@H](O)[C@H]2O)n1 [Tiazofurin, reference compound]
- % ILS (L1210 cells [3]; single agent day 1, Compound 19 173 mg/kg, Tiazofurin 22 mg/kg (Table 13)): 44%
- Residual cells (% of control brain) (L1210 cells [5]): 2.9%

Molecule: CC[C@]1(O)C[C@@H]2CN(CCc3c([nH]c4ccccc34)[C@@](C(=O)OC)(c3cc4c(cc3OC)N(C)[C@H]3[C@@](O)(C(=O)OC)[C@H](OC(C)=O)[C@]5(CC)C=CCN6CC[C@]43[C@@H]65)C2)C1 [Vinblastine]
- Activity rating δT/δC [4]: 119

Molecule: CC[C@]1(O)C[C@H]2CN(CCc3c([nH]c4ccccc34)[C@@](C(=O)OC)(c3cc4c(cc3OC)N(C=O)[C@H]3[C@@](O)(C(=O)OC)[C@H](OC(C)=O)[C@]5(CC)C=CCN6CC[C@]43[C@@H]65)C2)C1 [Vincristine]
- Activity rating δT/δC [4]: 89

Molecule: Bleomycin
- Activity rating δT/δC [4]: 51
